Measured values taken from US11964971B2, “Methods and compositions for modulating splicing” (Skyhawk Therapeutics, Inc., priority 2019, dated 2024).

Key:
MDR1 = experiment: in vitro; conditions: dog; for Papp A→B at 120 min, 5 μM: MDCK-MDR1, pH 7.4, MDCK-MDR1: Papp A-B (10^−6, cm/s); for Papp B→A at 120 min, 5 μM: MDCK-MDR1, pH 7.4, MDCK-MDR1: Papp B-A (10^−6, cm/s)
Protocol: (§1) Experimental Procedure: MDR1-MDCK cell monolayers are grown to confluence on collagen-coated, microporous membranes in 12-well assay plates. The permeability assay buffer is Hanks' balanced salt solution containing 10 mM HEPES and 15 mM glucose at a pH of 7.4. The buffer in the receiver chamber also contained 1% bovine serum albumin. The dosing solution concentration is 5 μM of test article in the assay buffer. Cell monolayers are dosed on the apical side (A-to-B) or basolateral side (B-to-A) and incubated at 37° C. with 5% CO2 in a humidified incubator. Samples are taken from the donor and receiver chambers at 120 minutes. Each determination is performed in duplicate. The flux of lucifer yellow is also measured post-experimentally for each monolayer to ensure no damage was inflicted to the cell monolayers during the flux period. All samples are assayed by LC-MS/MS using electrospray ionization.
(§2) Analytical Method: Liquid Chromatography • Column: Waters ACQUITY UPLC BEH Phenyl 30×2.1 mm, 1.7 μm • M.P. Buffer: 25 mM ammonium formate buffer, pH 3.5 • Aqueous Reservoir (A): 90% water, 10% buffer • Organic Reservoir (B): 90% acetonitrile, 10% buffer • Flow Rate: 0.7 mL/minute • Gradient Program:
(§3) • Total Run Time: 1.00 minute • Autosampler: 2 μL injection volume • Wash1: water/methanol/2-propanol:1/1/1; with 0.2% formic acid • Wash2: 0.1% formic acid in water • Brain Penetration • Potential Classification: A-B Papp≥3.0 and Efflux Ratio<3.0: High • A-B Papp≥3.0 and 10>Efflux Ratio≥3.0: Moderate • A-B Papp≥3.0 and Efflux Ratio≥10: Low • A-B Papp<3.0: Low

[1] = tested on: MDR1-MDCK cell monolayers; conditions: dog, MDCK-MDR1, 120 min, 5 μM, pH 7.4
Protocol: as §1, §2, §3

MDR1 (P-gp) = experiment: MDCK-MDR1 permeability assay, blood-brain-barrier penetration potential; conditions: dog, MDCK-MDR1, pH 7.4, MDCK-MDR1 Efflux Ratio
Protocol: as §1, §2, §3

SMN protein = SMN protein assay (MSD) in SMA patient fibroblasts (GM03813); format: cell-based, human
In short: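 SMA patient fibroblasts GM03813 (7000 cells/well) treated 48 h with compounds from 2.5 μM to 0.6 nM. Lysate SMN protein quantified by MSD immunoassay against an SMN standard curve (1 to 19.5 μg/ml) on each plate, giving absolute amounts.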

| Structure (SMILES) | Papp A→B at 120 min, 5 μM (MDR1) [×10⁻⁶ cm/s] | Papp B→A at 120 min, 5 μM (MDR1) [×10⁻⁶ cm/s] | MDCK-MDR1: % Recov A-B (%) [1] [%] | MDCK-MDR1: % Recov B-A (%) [1] [%] | efflux ratio at 120 min, 5 μM (MDR1 (P-gp)) | EC50 (SMN protein) [nM] |
| --- | --- | --- | --- | --- | --- | --- |
| Cn1cc(-c2ccc(-c3cnc(N(C4CC4)[C@@H]4CC5CC[C@H](N5)[C@@H]4F)cn3)c(O)c2)cn1 (single isomer, unassigned) [Compound 49E1] | 4.73 | 26.5 | 47 | 65 | 6 | 501 to 10000 |
| Cn1cnc(-c2cc(O)c(-c3cnc(N(C4CC4)[C@@H]4CC5CC[C@H](N5)[C@@H]4F)cn3)cc2F)cc1=O (single isomer, unassigned) [Compound 50E1] | 1.59 | 46.4 | 82 | 92 | 29 | 501 to 10000 |
| Cn1cnc(-c2cc(O)c(-c3cnc(N(C4CC4)[C@H]4C[C@@H]5CCC(N5)[C@H]4F)cn3)cc2F)cc1=O (single isomer, unassigned) [Compound 50E2] | 1.29 | 49.3 | 81 | 90 | 38 | 501 to 10000 |
| COc1cc(-c2ccc(-c3cnc(N(C4CC4)[C@@H]4CC5CC[C@H](N5)[C@@H]4F)cn3)c(O)c2)ccn1 (single isomer, unassigned) [Compound 51E1] | 1.5 | 3.19 | 8 | 34 | 2 | 501 to 10000 |
| COc1cc(-c2ccc(-c3cnc(N(C4CC4)[C@H]4C[C@@H]5CCC(N5)[C@H]4F)cn3)c(O)c2)ccn1 (single isomer, unassigned) [Compound 51E2] | 1.27 | 2.99 | 11 | 34 | 2 | 501 to 10000 |
| COc1cc(-c2ccc(-c3cnc(N(C4CC4)[C@@H]4CC5CC[C@H](N5)[C@@H]4F)cn3)c(O)c2)cc(F)n1 (single isomer, unassigned) [Compound 52E1] | 0.92 | 0.71 | 12 | 76 | 1 | 501 to 10000 |
| COc1cc(-c2ccc(-c3cnc(N(C4CC4)[C@H]4C[C@@H]5CCC(N5)[C@H]4F)cn3)c(O)c2)cc(F)n1 (single isomer, unassigned) [Compound 52E2] | 1.63 | 3.32 | 12 | 49 | 2 | 501 to 10000 |
| Cn1ccc(-c2ccc(-c3cnc(N(C4CC4)[C@@H]4CC5CC[C@H](N5)[C@@H]4F)cn3)c(O)c2)cc1=O (single isomer, unassigned) [Compound 53E1] | 1.51 | 50.9 | 71 | 71 | 34 | 501 to 10000 |
| Cn1ccc(-c2ccc(-c3cnc(N(C4CC4)[C@H]4C[C@@H]5CCC(N5)[C@H]4F)cn3)c(O)c2)cc1=O (single isomer, unassigned) [Compound 53E2] | 1.61 | 46.1 | 71 | 69 | 29 | 501 to 10000 |
| O=c1cc(-c2ccc(-c3cnc(N(C4CC4)[C@@H]4CC5CC[C@H](N5)[C@@H]4F)cn3)c(O)c2)ccn1CF (single isomer, unassigned) [Compound 54E1] | 1.92 | 43.4 | 64 | 70 | 23 | 501 to 10000 |
| O=c1cc(-c2ccc(-c3cnc(N(C4CC4)[C@H]4C[C@@H]5CCC(N5)[C@H]4F)cn3)c(O)c2)ccn1CF (single isomer, unassigned) [Compound 54E2] | 1.81 | 44 | 63 | 67 | 24 | 501 to 10000 |
| Cn1cnc(-c2ccc(-c3cnc(N(C4CC4)[C@@H]4CC5CC[C@H](N5)[C@@H]4F)cn3)c(O)c2)cc1=O (single isomer, unassigned) [Compound 55E1] | 2.46 | 64.4 | 81 | 85 | 26 | 501 to 10000 |
| Cn1cnc(-c2ccc(-c3cnc(N(C4CC4)[C@H]4C[C@@H]5CCC(N5)[C@H]4F)cn3)c(O)c2)cc1=O (single isomer, unassigned) [Compound 55E2] | 2.25 | 42.2 | 71 | 76 | 19 | 501 to 10000 |
| COc1cc(-c2ccc(-c3cnc(N(C4CC4)[C@@H]4CC5CC[C@H](N5)[C@@H]4F)cn3)c(O)c2)ncn1 (single isomer, unassigned) [Compound 56E1] | 2.09 | 7.91 | 17 | 51 | 4 | 501 to 10000 |
| COc1cc(-c2ccc(-c3cnc(N(C4CC4)[C@H]4C[C@@H]5CCC(N5)[C@H]4F)cn3)c(O)c2)ncn1 (single isomer, unassigned) [Compound 56E2] | 2.12 | 4.55 | 14 | 48 | 2 | 101 to 500 |
| CNC(=O)/C=C/c1cc(O)c(-c2cnc(N(C)[C@@H]3CC4CC[C@H](N4)[C@@H]3F)cn2)cc1F (single isomer, unassigned) [Compound 60E1] | 1.71 | 51.3 | 93 | 88 | 30 | 51 to 100 |
| CN(c1cnc(-c2cc(F)c(C3=CC(F)NC(F)=C3)cc2O)cn1)[C@@H]1C[C@@]2(C)CC[C@](C)(N2)[C@@H]1F (single isomer, unassigned) [Compound 63E1] | 0.7 | 0.45 | 18 | 35 | 1 | 501 to 10000 |
| COc1cc(-c2cc(O)c(-c3cnc(N(C)[C@@H]4C[C@@]5(C)CC[C@](C)(N5)[C@@H]4F)cn3)cc2F)cnn1 (single isomer, unassigned) [Compound 64E1] | 3.97 | 49.8 | 71 | 80 | 13 | 501 to 10000 |
| CN(c1cnc(-c2cc(F)c(-c3cn[nH]c3)cc2O)cn1)[C@@H]1CC2CC(F)(F)[C@@H](C1)N2 (single isomer, unassigned) [Compound 65E1] | 20.9 | 54.5 | 54 | 71 | 3 | 101 to 500 |
| CN(c1cnc(-c2cc(F)c(-c3cn[nH]c3)cc2O)cn1)[C@@H]1CC2N[C@H](C1)CC2(F)F (single isomer, unassigned) [Compound 65E2] | 28.3 | 37.7 | 54 | 63 | 1 | 501 to 10000 |
| CN(c1cnc(-c2cc(F)c(-c3cnn(C)c3)cc2O)cn1)[C@@H]1CC2CC(F)(F)[C@@H](C1)N2 (single isomer, unassigned) [Compound 66E1] | 21.9 | 20.7 | 42 | 51 | 1 | 101 to 500 |
